Consider 12 compounds from US9605004B2, “Chemical compounds” (SYNGENTA LIMITED, priority 2013, dated 2017).

The subject of test [1] is a variety of test species. The test can be described thus: Pre-emergence herbicidal activity (Example 8a, Table 2). Details: key: 0 = no damage to plant, 5 = total damage to plant. It is filed as in vivo. Conditions: application pre-emergence, rate 1000 g/ha, evaluated after 13 days. An outline of the steps: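 Seeds sown in standard soil in pots, sprayed one day later (pre-emergence) with aqueous solution from acetone/water (50:50) formulation with 0.5% Tween 20. Glasshouse at 24/16 °C day/night, 14 h light, 65% humidity, watered twice daily. Damage scored after 13 days, 0 (none) to 5 (total).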

For test [2], the system named is a variety of test species. As to the kind of experiment: Post-emergence herbicidal activity (Example 8b, Table 3). In kind it is in vivo. Conditions: application post-emergence, rate 1000 g/ha, evaluated after 13 days, scale 0-5; for Herbicidal damage score, ABUTH: Abutilon theophrasti; for Herbicidal damage score, ALOMY: Alopecurus myosuroides; for Herbicidal damage score, AMARE: Amaranthus retroflexus; for Herbicidal damage score, ECHCG: Echinochloa crus-galli; for Herbicidal damage score, SETFA: Setaria faberi; for Herbicidal damage score, ZEAMX: Zea mays. Summed up:
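Damage was rated 0-5 (5 = total) 13 days after a post-emergence spray of acetone/water (50:50) plus 0.5% Tween 20 formulation. Plants were sprayed at 8 days' growth and kept at 24/16° C, 14 h light, 65% humidity, watered twice daily.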

On to `CC(C)=Cc1cc(N2C(=O)C(Cl)=C(C)C2O)nn1C` (stereo not drawn) [Compound B7, 4-chloro-2-hydroxy-3-methyl-1-[1-methyl-5-(2-methylprop-1-enyl)pyrazol-3-yl]-2H-pyrrol-5-one], for which, in test [1], the “Pre-emergence herbicidal activity, damage score ABUTH” value amounted to 4; the “Pre-emergence herbicidal activity, damage score ALOMY” value amounted to 2; the “Pre-emergence herbicidal activity, damage score AMARE” value is 4; the “Pre-emergence herbicidal activity, damage score ECHCG” value is reported as 4. Also, in test [1], the “Pre-emergence herbicidal activity, damage score SETFA” value amounted to 4 and the “Pre-emergence herbicidal activity, damage score ZEAMX” value is 2. In addition, in test [2], the “Herbicidal damage score, ABUTH” value is given as 5; the “Herbicidal damage score, ALOMY” value was determined as 4; the “Herbicidal damage score, AMARE” value is on record as 5; the “Herbicidal damage score, ECHCG” value was found to be 5. For the same compound, in test [2], the “Herbicidal damage score, SETFA” value turned out to be 5 and the “Herbicidal damage score, ZEAMX” value came to 2.

As for `C/C=C\c1cc(N2C(=O)C(Cl)=C(C)C2O)nn1C` (stereo not drawn) [Compound B43], in test [1], the “Pre-emergence herbicidal activity, damage score ABUTH” value came out at 5; the “Pre-emergence herbicidal activity, damage score ALOMY” value was found to be 2; the “Pre-emergence herbicidal activity, damage score AMARE” value is given as 5; the “Pre-emergence herbicidal activity, damage score ECHCG” value came out at 4. In test [1], the “Pre-emergence herbicidal activity, damage score SETFA” value is reported as 4 and the “Pre-emergence herbicidal activity, damage score ZEAMX” value turned out to be 1. In test [2], the “Herbicidal damage score, ABUTH” value came to 5; the “Herbicidal damage score, ALOMY” value is 4; the “Herbicidal damage score, AMARE” value is 4; the “Herbicidal damage score, ECHCG” value worked out at 5. Further, in test [2], the “Herbicidal damage score, SETFA” value is 5 and the “Herbicidal damage score, ZEAMX” value is recorded as 2.

With `CC1=C(Cl)C(=O)N(c2nn(C)c(C(C)(C)CCl)c2Cl)C1O` (stereo not drawn) [Compound D4], in test [1], the “Pre-emergence herbicidal activity, damage score ABUTH” value was 5; the “Pre-emergence herbicidal activity, damage score ALOMY” value was 3; the “Pre-emergence herbicidal activity, damage score AMARE” value turned out to be 2; the “Pre-emergence herbicidal activity, damage score ECHCG” value came to 4. In test [1], the “Pre-emergence herbicidal activity, damage score SETFA” value was 2 and the “Pre-emergence herbicidal activity, damage score ZEAMX” value worked out at 2. For the same compound, in test [2], the “Herbicidal damage score, ABUTH” value amounted to 5; the “Herbicidal damage score, ALOMY” value was found to be 4; the “Herbicidal damage score, AMARE” value is 4; the “Herbicidal damage score, ECHCG” value is on record as 5. Also, in test [2], the “Herbicidal damage score, SETFA” value is listed as 4 and the “Herbicidal damage score, ZEAMX” value came to 0.

Regarding `CC1=C(Cl)C(=O)N(c2cc(C#N)n(CC(F)(F)F)n2)C1O` (stereo not drawn) [Compound C11], in test [1], the “Pre-emergence herbicidal activity, damage score ABUTH” value is given as 5; the “Pre-emergence herbicidal activity, damage score ALOMY” value is 0; the “Pre-emergence herbicidal activity, damage score AMARE” value worked out at 2; the “Pre-emergence herbicidal activity, damage score ECHCG” value amounted to 1. Also, in test [1], the “Pre-emergence herbicidal activity, damage score SETFA” value is on record as 1 and the “Pre-emergence herbicidal activity, damage score ZEAMX” value is listed as 1. Further, in test [2], the “Herbicidal damage score, ABUTH” value is 5; the “Herbicidal damage score, ALOMY” value amounted to 2; the “Herbicidal damage score, AMARE” value is recorded as 1; the “Herbicidal damage score, ECHCG” value was determined as 4. Further, in test [2], the “Herbicidal damage score, SETFA” value is listed as 3 and the “Herbicidal damage score, ZEAMX” value is given as 2.

For the compound `CCOC(c1cc(N2C(=O)C(Cl)=C(C)C2O)nn1C)C(C)(C)C` (mixture of isomers) [Compound B34], in test [1], the “Pre-emergence herbicidal activity, damage score ABUTH” value was 4; the “Pre-emergence herbicidal activity, damage score ALOMY” value was determined as 2; the “Pre-emergence herbicidal activity, damage score AMARE” value amounted to 2; the “Pre-emergence herbicidal activity, damage score ECHCG” value is on record as 3. Further, in test [1], the “Pre-emergence herbicidal activity, damage score SETFA” value was determined as 1 and the “Pre-emergence herbicidal activity, damage score ZEAMX” value was 1. In test [2], the “Herbicidal damage score, ABUTH” value was 5; the “Herbicidal damage score, ALOMY” value turned out to be 3; the “Herbicidal damage score, AMARE” value is 2; the “Herbicidal damage score, ECHCG” value came out at 3. Moreover, in test [2], the “Herbicidal damage score, SETFA” value is on record as 3 and the “Herbicidal damage score, ZEAMX” value was 0.

In the case of `CC#Cc1cc(N2C(=O)C(Cl)=C(C)C2O)nn1C` (stereo not drawn) [Compound B35], in test [1], the “Pre-emergence herbicidal activity, damage score ABUTH” value was found to be 3; the “Pre-emergence herbicidal activity, damage score ALOMY” value is given as 1; the “Pre-emergence herbicidal activity, damage score AMARE” value worked out at 5; the “Pre-emergence herbicidal activity, damage score ECHCG” value is given as 4. Also, in test [1], the “Pre-emergence herbicidal activity, damage score SETFA” value worked out at 3 and the “Pre-emergence herbicidal activity, damage score ZEAMX” value amounted to 0. In test [2], the “Herbicidal damage score, ABUTH” value is 4; the “Herbicidal damage score, ALOMY” value worked out at 1; the “Herbicidal damage score, AMARE” value is 1; the “Herbicidal damage score, ECHCG” value is listed as 4. In addition, in test [2], the “Herbicidal damage score, SETFA” value was 4 and the “Herbicidal damage score, ZEAMX” value was determined as 0.

`CCCC1=C(Br)C(=O)N(c2nn(C)c(C(C)(C)C)c2C#N)C1OC(=O)CC` (stereo not drawn) [Compound L3]: in test [1], the “Pre-emergence herbicidal activity, damage score ABUTH” value is recorded as 4; the “Pre-emergence herbicidal activity, damage score ALOMY” value amounted to 3; the “Pre-emergence herbicidal activity, damage score AMARE” value was 3; the “Pre-emergence herbicidal activity, damage score ECHCG” value is listed as 4. In addition, in test [1], the “Pre-emergence herbicidal activity, damage score SETFA” value is on record as 3 and the “Pre-emergence herbicidal activity, damage score ZEAMX” value is on record as 2. Besides, in test [2], the “Herbicidal damage score, ABUTH” value came out at 5; the “Herbicidal damage score, ALOMY” value turned out to be 4; the “Herbicidal damage score, AMARE” value is 4; the “Herbicidal damage score, ECHCG” value was 5. In addition, in test [2], the “Herbicidal damage score, SETFA” value is reported as 5 and the “Herbicidal damage score, ZEAMX” value is 2.

For `CC1=C(Cl)C(=O)N(c2cc3n(n2)CCSC3(C)C)C1O` (stereo not drawn) [Compound G10], in test [1], the “Pre-emergence herbicidal activity, damage score ABUTH” value is 5; the “Pre-emergence herbicidal activity, damage score ALOMY” value came out at 3; the “Pre-emergence herbicidal activity, damage score AMARE” value came out at 5; the “Pre-emergence herbicidal activity, damage score ECHCG” value came out at 5. In test [1], the “Pre-emergence herbicidal activity, damage score SETFA” value is recorded as 4 and the “Pre-emergence herbicidal activity, damage score ZEAMX” value stood at 4. In test [2], the “Herbicidal damage score, ABUTH” value is listed as 5; the “Herbicidal damage score, ALOMY” value is given as 5; the “Herbicidal damage score, AMARE” value was 5; the “Herbicidal damage score, ECHCG” value amounted to 5. For the same compound, in test [2], the “Herbicidal damage score, SETFA” value was found to be 5 and the “Herbicidal damage score, ZEAMX” value was 4.

On to `CC1=C(Cl)C(=O)N(c2cc(C(C)(C)C)n(C)n2)C1OC(=O)Oc1ccccc1` (stereo not drawn) [Compound F3], for which, in test [1], the “Pre-emergence herbicidal activity, damage score ABUTH” value is 5; the “Pre-emergence herbicidal activity, damage score ALOMY” value turned out to be 3; the “Pre-emergence herbicidal activity, damage score AMARE” value stood at 5; the “Pre-emergence herbicidal activity, damage score ECHCG” value turned out to be 5. In test [1], the “Pre-emergence herbicidal activity, damage score SETFA” value came out at 4 and the “Pre-emergence herbicidal activity, damage score ZEAMX” value is reported as 3. In test [2], the “Herbicidal damage score, ABUTH” value is listed as 5; the “Herbicidal damage score, ALOMY” value is 5; the “Herbicidal damage score, AMARE” value was found to be 5; the “Herbicidal damage score, ECHCG” value is recorded as 5. Further, in test [2], the “Herbicidal damage score, SETFA” value is recorded as 5 and the “Herbicidal damage score, ZEAMX” value is on record as 5.

For the compound `CC1=C(Cl)C(=O)N(c2cc3n(n2)CCC3C)C1O` (mixture of isomers) [Compound G1], in test [1], the “Pre-emergence herbicidal activity, damage score ABUTH” value is on record as 5; the “Pre-emergence herbicidal activity, damage score ALOMY” value worked out at 4; the “Pre-emergence herbicidal activity, damage score AMARE” value is 5; the “Pre-emergence herbicidal activity, damage score ECHCG” value is 5. Further, in test [1], the “Pre-emergence herbicidal activity, damage score SETFA” value is on record as 4 and the “Pre-emergence herbicidal activity, damage score ZEAMX” value is on record as 3. Further, in test [2], the “Herbicidal damage score, ABUTH” value was found to be 5; the “Herbicidal damage score, ALOMY” value is reported as 5; the “Herbicidal damage score, AMARE” value turned out to be 5; the “Herbicidal damage score, ECHCG” value came to 5. In test [2], the “Herbicidal damage score, SETFA” value worked out at 5 and the “Herbicidal damage score, ZEAMX” value was found to be 5.

`COC1=C(C)C(O)N(c2nn(C)c(C(C)(C)C)c2C#N)C1=O` (stereo not drawn) [Compound H3]: in test [1], the “Pre-emergence herbicidal activity, damage score ABUTH” value was 4; the “Pre-emergence herbicidal activity, damage score ALOMY” value was determined as 4; the “Pre-emergence herbicidal activity, damage score AMARE” value came out at 4; the “Pre-emergence herbicidal activity, damage score ECHCG” value is 5. In addition, in test [1], the “Pre-emergence herbicidal activity, damage score SETFA” value amounted to 4 and the “Pre-emergence herbicidal activity, damage score ZEAMX” value was found to be 1. Also, in test [2], the “Herbicidal damage score, ABUTH” value is given as 5; the “Herbicidal damage score, ALOMY” value was 5; the “Herbicidal damage score, AMARE” value is given as 4; the “Herbicidal damage score, ECHCG” value is given as 5. Besides, in test [2], the “Herbicidal damage score, SETFA” value was found to be 5 and the “Herbicidal damage score, ZEAMX” value was determined as 3.

`CC1=C(Cl)C(=O)N(c2cc(C(F)(F)F)n(CC(F)(F)F)n2)C1O` (stereo not drawn) [Compound C9]: in test [1], the “Pre-emergence herbicidal activity, damage score ABUTH” value is on record as 2; the “Pre-emergence herbicidal activity, damage score ALOMY” value amounted to 3; the “Pre-emergence herbicidal activity, damage score AMARE” value is on record as 3; the “Pre-emergence herbicidal activity, damage score ECHCG” value came to 4. Moreover, in test [1], the “Pre-emergence herbicidal activity, damage score SETFA” value is 4 and the “Pre-emergence herbicidal activity, damage score ZEAMX” value came to 2. In addition, in test [2], the “Herbicidal damage score, ABUTH” value is on record as 4; the “Herbicidal damage score, ALOMY” value is given as 5; the “Herbicidal damage score, AMARE” value is reported as 5; the “Herbicidal damage score, ECHCG” value is recorded as 5. In test [2], the “Herbicidal damage score, SETFA” value is given as 5 and the “Herbicidal damage score, ZEAMX” value worked out at 3.
